Earlier results on one molecule are cited in US20190365934A1, “METHODS FOR IN VIVO MONITORING OF DO[…] AND EFFICACY OF TREATMENT AGENTS THEREFOR” (LIKEMINDS, INC., priority 2017, published 2019).

The conditions of this series: background statement on FDA approved SPECT tracer.

Regarding `COC(=O)[C@H]1[C@@H](c2ccc([123I])cc2)C[C@@H]2CC[C@H]1N2CCCF` [[^123I]-FP-CIT, [^123I]-2β-carbomethoxy-3β-(4-iodophenyl)-N-(3-fluoropropyl) nortropane], the stable post-injection is 4 h.
